Test results taken from publication PMC7612645 (2021).

System: US (RNA, single strand) UUUUUACCUAUCUCUUUUUCUCU
Test: SPR
Conditions: 250 mM NaCl; 20 mM HEPES pH 7.5, 2% DMSO, 0.1% Tween20, 37 °C; trace shown at 40 nM compound

In the case of `Cc1nc2nc(CN)nn2c(C)c1CCC(=O)Nc1ccc(F)c(Cl)c1`, the binding is reported as “no”.
